Molecular target: T1, human ALK (Homo sapiens, UniProt Q9UM73)
T1 construct: GST (N); purchased Invitrogen, Carlsbad, Calif; (or prepared by AstraZeneca); host or cells: insect cells
Assay: ALK kinase mobility shift assay (Caliper LC3000)
Assay type: biochemical
Conditions: cumulative geometric means including test re-runs, some obtained since the priority filings; ATP 30 μM (Km) or 5 mM, not specified which; read-out: ALK Enzyme IC50 (μM)**
Procedure: ALK kinase activity was determined by measuring the kinase's ability to phosphorylate a tyrosine residue within a peptide substrate using a mobility shift assay on a Caliper LC3000 reader (Caliper Life Sciences, Hopkinton, Mass.), which measures fluorescence of the phosphorylated and unphosphorylated substrate and calculates a ratiometric value to determine percent turnover.
To measure ALK kinase activity, the ALK enzyme used was N-terminal GST-tagged, recombinant, human ALK, amino acids 1058-1620 (Genbank Accession number NP_004295) expressed in insect cells and activated in-vitro via autophosphorylation. This was either purchased from a commercially available source (Invitrogen, Carlsbad, Calif.) or prepared by AstraZeneca. The kinase was incubated with a FAM labeled SRCtide substrate (5FAM-GEEPLYWSFPAKKK-NH2, AnaSpec, Fremont, Calif.), 30 μM adenosine triphosphate (ATP, at Km concentration) or 5 mM ATP, 50 mM HEPES buffer (pH 7.3), 1 mM DTT, 0.01% Tween 20, 50 μg/ml BSA and 10 mM MgCl2 for 90 minutes at room temperature. After this time, the kinase reaction was stopped by adding quenching buffer containing final concentrations of 36 mM ethylenediaminetetraacetic acid (EDTA), 65 mM HEPES buffer (pH 7.3), 0.2% Coatin Reagent 3 (Caliper Life Sciences, Hopkinton, Mass.), and 0.003% Tween 20. The reaction was performed in 384 well microtitre plates and the reaction products were detected using the Caliper LC3000 Reader in the presence of separation buffer consisting of 100 mM HEPES (pH 7.3), 15.8 mM EDTA, 0.1% Coatin Reagent 3 (Caliper, Mass.), 0.015% Brij-35, 5% DMSO, and 5.6 mM MgCl2. The separation conditions set up on the Caliper LC3000 were −1.7 PSI, −400V upstream voltage, −2000V downstream voltage, 0.2 second sample sip, 45 second post sip, and 150 seconds final delay. The percentage of inhibition of ALK enzyme activity by compounds were measured based on Max signals (DMSO control) and Min signals (EDTA control) in the plates. Data was graphed and IC50s calculated by IDBS ActivityBase program.

T1 sequence (Q9UM73 1058-1620): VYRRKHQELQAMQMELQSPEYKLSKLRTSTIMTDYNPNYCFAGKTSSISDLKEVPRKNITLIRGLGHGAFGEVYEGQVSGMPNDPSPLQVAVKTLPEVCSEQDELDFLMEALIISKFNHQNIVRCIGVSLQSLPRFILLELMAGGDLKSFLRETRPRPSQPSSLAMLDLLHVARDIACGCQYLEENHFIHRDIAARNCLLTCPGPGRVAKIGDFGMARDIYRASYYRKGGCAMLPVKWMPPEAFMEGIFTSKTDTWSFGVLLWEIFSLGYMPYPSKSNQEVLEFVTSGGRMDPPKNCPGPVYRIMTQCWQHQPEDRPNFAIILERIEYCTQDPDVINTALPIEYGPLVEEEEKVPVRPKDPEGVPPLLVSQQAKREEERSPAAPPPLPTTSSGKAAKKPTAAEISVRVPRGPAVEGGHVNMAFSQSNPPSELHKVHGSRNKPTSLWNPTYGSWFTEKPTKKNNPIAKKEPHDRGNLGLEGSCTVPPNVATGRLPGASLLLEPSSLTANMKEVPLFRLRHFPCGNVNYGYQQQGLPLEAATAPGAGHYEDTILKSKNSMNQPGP

| IC50 | SMILES |
| --- | --- |
| 0.083 µM | COc1cc(P2(=O)CCC(N)CC2)ccc1Nc1ncc(Cl)c(-c2c[nH]c3ccccc23)n1 (single isomer, unassigned) [Example 42, N-[4-(4-amino-1-oxidophosphinan-1-yl)-2-methoxyphenyl]-5-chloro-4-(1H-indol-3-yl)pyrimidin-2-amine] |
| 0.158 µM | COc1cc(P2(=O)CCC(N)CC2)ccc1Nc1ncc(C)c(-c2c[nH]c3ccccc23)n1 (single isomer, unassigned) [Example 43, N-[4-(4-amino-1-oxidophosphinan-1-yl)-2-methoxyphenyl]-4-(1H-indol-3-yl)-5-methylpyrimidin-2-amine] |
| 0.02 µM | COc1cc(P2(=O)CCC(N)CC2)ccc1Nc1ncc(C)c(-c2c[nH]c3ccccc23)n1 (single isomer, unassigned) [Example 44, N-[4-(4-amino-1-oxidophosphinan-1-yl)-2-methoxyphenyl]-4-(1H-indol-3-yl)-5-methylpyrimidin-2-amine] |
| 0.061 µM | COc1cc(N2CCC(N)C(F)C2)ccc1Nc1ncc(Cl)c(-c2c[nH]c3ccccc23)n1 (single isomer, unassigned) [Example 45, (trans)-N-(4-(4-amino-3-fluoropiperidin-1-yl)-2-methoxyphenyl)-5-chloro-4-(1H-indol-3-yl)pyrimidin-2-amine] |
| 0.039 µM | COc1cc(N2CCC(N)C(F)C2)ccc1Nc1ncc(Cl)c(-c2c[nH]c3ccccc23)n1 (single isomer, unassigned) [Example 46, (trans)-N-(4-(4-amino-3-fluoropiperidin-1-yl)-2-methoxyphenyl)-5-chloro-4-(1H-indol-3-yl)pyrimidin-2-amine] |
| 0.022 µM | COc1cc(N2CCC(N)C(F)C2)ccc1Nc1ncc(Cl)c(-c2c[nH]c3ccccc23)n1 (single isomer, unassigned) [Example 50, (cis)-N-(4-(4-amino-3-fluoropiperidin-1-yl)-2-methoxyphenyl)-5-chloro-4-(1H-indol-3-yl)pyrimidin-2-amine] |
| 0.031 µM | COc1cc(N2CCC(N)C(F)C2)ccc1Nc1ncc(Cl)c(-c2c[nH]c3ccccc23)n1 (single isomer, unassigned) [Example 51, (cis)-N-(4-(4-amino-3-fluoropiperidin-1-yl)-2-methoxyphenyl)-5-chloro-4-(1H-indol-3-yl)pyrimidin-2-amine] |
| 0.079 µM | COc1cc(N2CCC(N3CCN(C)CC3)CC2)ccc1Nc1ncc(F)c(-c2c[nH]c3ccccc23)n1 [Example 7, 5-Fluoro-4-(1H-Indol-3-yl)-N-(2-methoxy-4-(4-(4-methylpiperazin-1-yl)piperidin-1-yl)phenyl)pyrimidin-2-amine] |

Same assay, conditions: geometric means of multiple test runs, as presented in the priority filings; ATP 30 μM (Km) or 5 mM, not specified which; read-out: ALK Enzyme IC50 (μM)*

| IC50 | SMILES |
| --- | --- |
| 0.023 µM | CNC1CCN(c2ccc(Nc3ncc(Cl)c(-c4c[nH]c5ccccc45)n3)c(OC)c2)CC1 [Example 2, 5-Chloro-4-(1H-indol-3-yl)-N-(2-methoxy-4-(4-(methylamino)piperidin-1-yl)phenyl)pyrimidin-2-amine] |
| 0.07 µM | COc1cc(N2CCC(N3CCNCC3)CC2)ccc1Nc1ncc(Cl)c(-c2c[nH]c3ccccc23)n1 [Example 3, 5-Chloro-4-(1H-indol-3-yl)-N-(2-methoxy-4-(4-(piperazin-1-yl)piperidin-1-yl)phenyl)pyrimidin-2-amine] |
| 0.052 µM | CNC1CCN(c2ccc(Nc3ncc(C)c(-c4c[nH]c5ccccc45)n3)c(OC)c2)CC1 [Example 4, 4-(1H-Indol-3-yl)-N-(2-methoxy-4-(4-(methylamino)piperidin-1-yl)phenyl)-5-methylpyrimidin-2-amine] |
| 0.03 µM | COc1cc(N2CCC(N)CC2)ccc1Nc1ncc(C)c(-c2c[nH]c3ccccc23)n1 [Example 5, N-(4-(4-Aminopiperidin-1-yl)-2-methoxyphenyl)-4-(1H-indol-3-yl)-5-methylpyrimidin-2-amine] |
| 0.058 µM | COc1cc(N2CCC(NC3CC3)CC2)ccc1Nc1ncc(Cl)c(-c2c[nH]c3ccccc23)n1 [Example 6, 5-Chloro-N-(4-(4-(cyclopropylamino)piperidin-1-yl)-2-methoxyphenyl)-4-(1H-indol-3-yl)pyrimidin-2-amine] |
| 0.041 µM | COc1cc(N2CCC(N3CCN(C)CC3)CC2)ccc1Nc1ncc(F)c(-c2c[nH]c3ccccc23)n1 [Example 7, 5-Fluoro-4-(1H-Indol-3-yl)-N-(2-methoxy-4-(4-(4-methylpiperazin-1-yl)piperidin-1-yl)phenyl)pyrimidin-2-amine] |
